Test results published in PMC4967898, “Peptides interfering with protein-protein interactions in the ethylene signaling pathway delay tomato fruit ripening” (Scientific Reports, 2016).

Molecular target: T1, LeETR1 (Solanum lycopersicum, UniProt Q41342)
T1 construct: made in house; host or cells: E. coli
T1 sequence (Q41342 1-754): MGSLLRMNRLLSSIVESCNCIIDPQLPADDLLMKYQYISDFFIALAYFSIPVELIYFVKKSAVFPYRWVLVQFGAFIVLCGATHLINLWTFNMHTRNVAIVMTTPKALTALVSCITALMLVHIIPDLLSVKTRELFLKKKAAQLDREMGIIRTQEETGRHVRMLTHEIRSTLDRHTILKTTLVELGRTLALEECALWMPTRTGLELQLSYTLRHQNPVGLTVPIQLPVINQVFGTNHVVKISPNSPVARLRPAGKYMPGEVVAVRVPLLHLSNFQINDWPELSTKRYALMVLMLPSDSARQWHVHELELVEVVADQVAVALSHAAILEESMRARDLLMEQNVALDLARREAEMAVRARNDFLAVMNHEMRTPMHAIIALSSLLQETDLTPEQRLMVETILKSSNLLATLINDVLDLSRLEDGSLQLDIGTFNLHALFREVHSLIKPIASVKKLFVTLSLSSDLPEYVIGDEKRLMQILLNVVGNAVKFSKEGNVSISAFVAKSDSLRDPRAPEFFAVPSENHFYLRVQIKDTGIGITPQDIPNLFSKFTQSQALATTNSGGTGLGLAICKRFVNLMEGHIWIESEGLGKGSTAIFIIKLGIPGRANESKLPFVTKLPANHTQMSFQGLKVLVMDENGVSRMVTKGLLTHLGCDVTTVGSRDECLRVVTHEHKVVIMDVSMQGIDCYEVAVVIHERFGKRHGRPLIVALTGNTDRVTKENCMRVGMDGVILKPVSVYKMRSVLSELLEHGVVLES
Assay: MST NOP-1 binding to LeETR1
Set-up: species or system tomato
Details: 50 nM LeETR1 labeled with Alexa Fluor 488-Maleimide, NOP-1 3.8 nM to 31 μM, 50 mM Tris-HCl pH 8.0, 300 mM NaCl, 0.015% (w/v) Fos-Choline-16, 80% MST power, 1:1 stoichiometry, mean +/− standard deviation
Source text: To substantiate the inhibitory role of NOP-1 in LeEIN2-LeETR1 complex formation, NOP-1 binding to LeETR1 was studied by microscale thermophoresis (MST) as described in the Methods section. […] The Kd for the LeETR1-NOP1 interaction compares to the affinities of the EIN2-ETR1 interaction in Arabidopsis[10][11] and tomato (this work) emphasizing that the NOP-1 peptide can efficiently compete for ETR1 binding and disrupt EIN2-ETR1 complex formation.
Analysis of LeETR1-LeEIN2 complex formation, NOP-1 binding to LeETR1 and determination of the respective dissociation constants Kd was performed by MST[33][34][35]. For protein-protein interaction studies LeETR1 was labeled with Alexa Fluor 488 succinimidyl-ester (Life Technologies) in a buffer containing 50 mM potassium phosphate pH 8.0, 300 mM NaCl and 0.015% (w/v) Fos-Choline-16 according to the manufacturer’s protocol. […]
For quantification of NOP-1 binding to tomato receptor protein, recombinant LeETR1 was labeled with Alexa Fluor 488-Maleimide (Life Technologies) in a buffer containing 50 mM potassium phosphate pH 8.0, 300 mM NaCl, 0.015% (w/v) Fos-Choline-16 following the manufacturer’s protocol. […] Protein-peptide mixtures were transferred into glass capillaries and MST was measured with 80% MST power. […] The dissociation constant Kd was calculated according to a model assuming a 1:1 stoichiometry per binding partner.

CC(C)C[C@H](NC(=O)[C@H](CCCNC(=N)N)NC(=O)[C@H](CCCNC(=N)N)NC(=O)[C@H](CCCCN)NC(=O)[C@H](Cc1ccc(O)cc1)NC(=O)[C@H](CCCNC(=N)N)NC(=O)[C@H](CCCCN)NC(=O)[C@@H](N)CC(C)C)C(N)=O [NOP-1, LKRYKRRL-NH2]
Kd: ~150 nM
